Measured values as given in article PMC8374946 (European journal of pharmacology, 2021).

Legend:
[1] = tested on: nontransfected HEK293T cells; assay: Ca2+ fluorescent assay in nontransfected HEK293T cells; format: cell-based; conditions: 10 µM for XLR-11, UR-144, AM1220
human TRPV1 channel = human TRPV1 channel (Homo sapiens, UniProt Q8NER1); assay: TRPV1 channel Ca2+ fluorescent; format: cell-based; conditions: for TRPV1 channel Ca2+ signal Emax: normalized to signal with 1 µM capsaicin, HEK293T-TRPV1 cells
Chain of human TRPV1 channel (Q8NER1 whole entry): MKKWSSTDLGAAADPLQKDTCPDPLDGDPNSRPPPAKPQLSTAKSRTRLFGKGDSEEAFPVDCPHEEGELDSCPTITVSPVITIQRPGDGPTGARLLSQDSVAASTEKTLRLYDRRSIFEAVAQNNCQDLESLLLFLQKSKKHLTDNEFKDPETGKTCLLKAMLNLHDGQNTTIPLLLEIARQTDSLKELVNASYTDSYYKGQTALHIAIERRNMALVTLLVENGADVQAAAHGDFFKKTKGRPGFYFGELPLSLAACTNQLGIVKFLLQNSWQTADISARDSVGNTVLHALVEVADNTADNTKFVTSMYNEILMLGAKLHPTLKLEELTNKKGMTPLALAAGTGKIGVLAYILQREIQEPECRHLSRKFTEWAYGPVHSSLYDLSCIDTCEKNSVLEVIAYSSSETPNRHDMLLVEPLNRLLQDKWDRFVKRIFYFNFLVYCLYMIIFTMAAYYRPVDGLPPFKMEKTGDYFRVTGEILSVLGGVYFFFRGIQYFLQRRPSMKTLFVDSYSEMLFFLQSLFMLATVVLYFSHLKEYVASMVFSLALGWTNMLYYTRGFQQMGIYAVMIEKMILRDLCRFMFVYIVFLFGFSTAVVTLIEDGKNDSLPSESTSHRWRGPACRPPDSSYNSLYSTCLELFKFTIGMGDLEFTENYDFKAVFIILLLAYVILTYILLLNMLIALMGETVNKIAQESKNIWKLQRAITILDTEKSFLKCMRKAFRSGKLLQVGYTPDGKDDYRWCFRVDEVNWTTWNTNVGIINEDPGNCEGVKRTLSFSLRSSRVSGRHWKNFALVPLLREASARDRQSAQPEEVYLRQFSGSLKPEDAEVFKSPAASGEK

TRPV1 channels = conditions: read-out: EC50 for TRPV1 channel activation; ref Soethoudt et al., 2017; cited from earlier work
[2] = target: human cannabinoid type-1 (CB1) receptor (Homo sapiens, UniProt P21554); format: cell-based
Chain of human cannabinoid type-1 (CB1) receptor (P21554 whole entry): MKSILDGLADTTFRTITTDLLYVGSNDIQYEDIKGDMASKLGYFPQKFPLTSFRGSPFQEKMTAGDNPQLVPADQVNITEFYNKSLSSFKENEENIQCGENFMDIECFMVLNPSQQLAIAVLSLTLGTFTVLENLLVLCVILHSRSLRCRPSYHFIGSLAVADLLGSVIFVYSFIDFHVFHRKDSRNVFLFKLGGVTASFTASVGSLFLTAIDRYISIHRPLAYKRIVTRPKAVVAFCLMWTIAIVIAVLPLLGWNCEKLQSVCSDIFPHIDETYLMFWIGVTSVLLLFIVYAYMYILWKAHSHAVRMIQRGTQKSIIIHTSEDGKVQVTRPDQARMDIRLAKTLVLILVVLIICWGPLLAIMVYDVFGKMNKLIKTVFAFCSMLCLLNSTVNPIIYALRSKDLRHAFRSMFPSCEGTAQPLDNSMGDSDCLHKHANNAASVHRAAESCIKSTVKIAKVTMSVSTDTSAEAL

SMILES	Ca2+ transients in nontransfected HEK293T cells [1]	TRPV1 channel Ca2+ signal Emax (human TRPV1 channel)	EC50 (human TRPV1 channel)	EC50 (TRPV1 channels)	CB1 receptor-mediated activation of the GIRK channels [2]
CCCCCn1cc(C(=O)C2C(C)(C)C2(C)C)c2ccccc21 [UR-144]	not observed	0.23	–	–	–
CCCCC/C=C\C/C=C\C/C=C\C/C=C\CCCC(=O)NCCO [AEA, N-arachidonoylethanolamine]	not observed	0.35	2.1 µM	–	–
COc1cc(CNC(=O)CCCC/C=C/C(C)C)ccc1O [capsaicin]	not observed	–	–	–	–
CN1CCCCC1Cn1cc(C(=O)c2cccc3ccccc23)c2ccccc21 (stereo not drawn) [AM1220]	not observed	0.26	–	–	–
CC1(C)C(C(=O)c2cn(CCCCCF)c3ccccc23)C1(C)C [XLR-11]	not observed	0.39	–	–	–
CCCC(C)(C)c1ccc2c(c1)OC(C)(C)[C@@H]1CC=C(C)C[C@@H]21 [JWH-133]	–	–	–	8.2 µM	no CB1 receptor-mediated activation
